Data on three compounds can be found in patent US8268575B2, “NAD biosynthesis systems” (Washington University, priority 2004, dated 2012).

“Also recorded” adds a separate entry of the source.

The target in assay [1] is T1, purified recombinant mouse Nampt (Mus musculus, UniProt Q99KQ4).
T1 construct: the purified full-length His-tagged Nampt and Nmnat recombinant proteins; made in house; host or cells: E. coli BL21(DE3)pLysS
Description: enzyme-coupled fluorometric assay, kinetic characterization of Nampt. Format: biochemical. The settings on record: substrate of Nampt. The method, then:
(§1) Enzymatic activities of recombinant Nampt and Nmnat proteins were measured by an enzyme-coupled fluorometric assay (see e.g. FIG. 2A). In this enzyme-coupled reaction, NAD is converted to NADH by alcohol dehydrogenase, and the fluorescence of NADH is detected in a fluorometer. To establish this assay system, optimal reaction conditions for Nmnat were initially examined by varying ATP and Mg^2+ concentrations and pH of the reaction buffer. The resultant reaction buffer for Nmnat contained 50 mM HEPES [pH 7.4], 0.02% BSA, 12 mM MgCl2, 2 mM ATP, 1.5% ethanol, and 30 μg/ml alcohol dehydrogenase to convert NAD to NADH. To determine the kinetic parameters for Nmnat, 30 ng of purified His-tagged Nmnat and varying concentrations of NMN were added to 1 ml of the reaction buffer. The reactions were run at 37° C. and quenched at six time points by the addition of 250 μl of 0.5 M EDTA. The production of NADH was measured by excitation at 340 nm and emission at 460 nm in a fluorometer. […] NADH production was measured continuously in a fluorometer.

Assay [2] deals with NIH3T3 cells. Put plainly: total cellular NAD levels by HPLC in NIH3T3 cells. Format: cell-based, mouse. The settings on record: 5 mM added to the medium. The method, then: Total cellular levels of NAD was measured in the NIH3T3 cell lines overexpressing the untagged enzymes. High performance liquid chromatography was used to measure NAD (Neubert et al., Biochim. Biophys. Acta. (1964) 92, 610-612; Emanuelli et al., J. Chromatogr. (1996) B. 676, 13-18). Briefly, 5×10^5 cells were plated in 6 cm dishes and harvested 48 h later in 800 μl of ice-cold PBS. Cells were then spun down and lysed with 300 μl of 1 M HClO4 on ice for 10 min. Lysates were cleared by centrifugating at 4° C. at 18,000 g for 5 minutes. Cleared lysates (240 μl) were neutralized by adding 80 μl of 3M K2CO3 and incubating on ice for 10 minutes. After centrifuging for 10 min, 100 μl of the supernatant were mixed with 400 μl of Buffer A and loaded onto the column. The HPLC was run at a flow rate of 1 ml/min with 100% Buffer A from 0 to 5 min, a linear gradient to 95% Buffer A and 5% Buffer B (100% methanol) from 5 to 6 min, 95% Buffer A and 5% Buffer B from 6 to 11 min, a linear gradient to 85% Buffer A and 15% Buffer B from 11 to 13 min, 85% Buffer A and 15% Buffer B from 13 to 23 min, and a linear gradient to 100% Buffer A from 23 to 24 min. NAD was eluted as a sharp peak at 22 min. The amount of NAD was quantitated based on the peak area compared to a standard curve.

Assay [3] deals with GAL4 DBD fused to the Sir2α catalytic core domain (GAL4 DBD-mCORE) (Mus musculus, UniProt Q923E4). The conditions noted are these: 5 mM, added 24 h after transfection, NIH3T3 cells.
Description: A reporter gene transcription assay using a GAL4 DNA binding domain (GAL4 DBD) fusion system was developed to monitor the transcriptional regulatory activity of the mouse Sir2 ortholog, Sir2α. […] This assay system used the GAL4 DBD fused to the Sir2α catalytic core domain (GAL4 DBD-mCORE) and a luciferase reporter that has a thymidine kinase minimal promoter and four GAL4 binding sites.
For the luciferase assay, 1.2×10^5 NIH3T3 cells were plated in 6 cm dishes. 24 h after plating, cells were transfected for 3 h with 380 ng of pUAS4tk-luc as a reporter, 1.5 μg of pM or pM-GAL4 DBD-mCORE as an effector, and 38 ng of pRL-SV40 (Promega, Wis.) as a normalization control by using Superfect (Qiagen). Transfectants were harvested 48 h after transfection, and luciferase activity was measured with the Dual-Luciferase Reporter Assay System (Promega, Wis.) and a SIRIUS luminometer (Berthold Detection Systems, Germany) according to the manufacturers' protocols. Background luminescence was subtracted and was always less than 1% of measured values. Transfection efficiencies were normalized based on Renilla luciferase activities. […] To examine the effects of Nampt and Nmnat on the transcriptional repressive activity of GAL4 DBD-mCORE, NIH3T3 cells were co-transfected with indicated amounts of Nampt and Nmnat expression vectors along with reporter, effector and normalization control plasmids.
For assay [4], the target named is T2, purified recombinant mouse Nmnat (Mus musculus, UniProt Q9EPA7).
T2 construct: the purified full-length His-tagged Nampt and Nmnat recombinant proteins; made in house; host or cells: E. coli BL21(DE3)pLysS
Description: enzyme-coupled fluorometric assay, kinetic parameters for Nmnat. Format: biochemical. The settings on record: substrate of Nmnat. The method, then: as §1

T2 sequence (Q9EPA7 whole entry): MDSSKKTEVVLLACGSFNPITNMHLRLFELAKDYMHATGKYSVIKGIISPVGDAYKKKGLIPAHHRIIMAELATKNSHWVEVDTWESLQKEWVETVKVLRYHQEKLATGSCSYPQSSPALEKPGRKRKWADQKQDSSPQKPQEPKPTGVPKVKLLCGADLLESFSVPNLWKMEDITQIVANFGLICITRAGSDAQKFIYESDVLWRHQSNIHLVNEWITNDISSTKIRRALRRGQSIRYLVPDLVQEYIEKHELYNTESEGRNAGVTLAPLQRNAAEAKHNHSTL
Sequence of GAL4 DBD fused to the Sir2α catalytic core domain (GAL4 DBD-mCORE) (Q923E4 with tags, fused parts or gaps): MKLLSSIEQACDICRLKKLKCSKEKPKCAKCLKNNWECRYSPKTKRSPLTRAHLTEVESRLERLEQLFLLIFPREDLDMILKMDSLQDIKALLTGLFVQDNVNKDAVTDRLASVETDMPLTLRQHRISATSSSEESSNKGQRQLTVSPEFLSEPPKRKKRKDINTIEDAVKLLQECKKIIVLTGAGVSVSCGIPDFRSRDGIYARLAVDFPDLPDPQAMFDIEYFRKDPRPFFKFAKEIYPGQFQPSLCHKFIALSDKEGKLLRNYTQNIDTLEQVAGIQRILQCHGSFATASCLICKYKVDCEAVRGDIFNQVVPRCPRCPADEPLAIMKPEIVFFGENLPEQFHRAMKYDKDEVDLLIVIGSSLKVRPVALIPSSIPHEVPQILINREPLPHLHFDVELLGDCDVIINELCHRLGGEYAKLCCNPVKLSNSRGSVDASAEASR
T1 sequence (Q99KQ4 whole entry): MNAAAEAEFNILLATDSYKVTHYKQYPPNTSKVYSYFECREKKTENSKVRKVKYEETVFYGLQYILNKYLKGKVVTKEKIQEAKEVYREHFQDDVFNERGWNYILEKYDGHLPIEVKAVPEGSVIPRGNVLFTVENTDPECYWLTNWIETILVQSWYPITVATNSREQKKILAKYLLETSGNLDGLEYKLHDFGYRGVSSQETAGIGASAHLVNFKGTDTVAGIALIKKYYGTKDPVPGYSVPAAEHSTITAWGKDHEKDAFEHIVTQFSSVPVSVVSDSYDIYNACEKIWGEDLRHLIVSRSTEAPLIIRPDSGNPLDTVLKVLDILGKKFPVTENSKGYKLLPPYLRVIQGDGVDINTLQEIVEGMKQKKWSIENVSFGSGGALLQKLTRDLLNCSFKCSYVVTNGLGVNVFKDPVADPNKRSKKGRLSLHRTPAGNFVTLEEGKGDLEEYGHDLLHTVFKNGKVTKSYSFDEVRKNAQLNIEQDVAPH

For orientation: Vmax means the top rate of the reaction or transport when substrate is in excess. For `NC(=O)c1cccnc1` [Nicotinamide, 3-pyridinecarboxamide], in assay [1], the Kcat turned out to be 0.020 s⁻¹ and the Vmax turned out to be 0.021 µmol/min/mg. In addition, in assay [2], the “effect on total cellular NAD” value is recorded as “did not increase NAD; also recorded: unable to increase NAD”. Moreover, the “effect on transcriptional repressive activity of GAL4 DBD-mCORE” value in assay [3] is recorded as “abolished”.
For `O=C(O)c1cccnc1` [nicotinic acid], in assay [3], the “effect on transcriptional repressive activity of GAL4 DBD-mCORE” value was “not”.
What is called Km is the concentration of substrate that gives half-maximal velocity. `NC(=O)c1ccc[n+]([C@@H]2O[C@H](COP(=O)([O-])O)[C@@H](O)[C@H]2O)c1` [NMN, nicotinamide mononucleotide]: in assay [4], the Kcat was 20.0 s⁻¹ and the Vmax is 34.1 µmol/min/mg. Besides, in assay [4] (37° C., pH 7.4), the Km was 20.1 µM.
